Source: patent US12011447B2, “Pharmaceutical composition for treating thyroid cancer comprising tyrosine kinase activity inhibitor as active ingredient” (Kyungpook National University Industry-Academic Cooperation …, priority 2017, dated 2024)
“Also recorded” adds a separate entry of the source.

Tests used:
cleaved caspase-3 = assay: Immunohistochemistry of cleaved caspase-3 in tumor tissue; format: in vivo, Balb/c nude mice; conditions: co-administered with 131I and TKI-0266
From the text: At the end of the experiment, the mice were sacrificed, and the tumors were isolated from the mouse's right flank and fixed overnight with 4% formalin. The isolated tumors were embedded in paraffin, sectioned to a 4-μm thickness, and mounted on slides. The tumor sections on the slides were de-paraffinized and stained with hematoxylin & eosin. For immunohistochemistry, NIS (Thermo Fisher Scientific; diluted at 1:200) and cleaved caspase-3 (Cell signaling; diluted at 1:200) antibodies were used.

[1] = R-luc BLI signal indicating cell viability in dual-reporter cells; format: cell-based, human; conditions: human; 8505C-PNIS-PCMV cells, 24 hours, screening; read-out: BLI signal activity of R-luc (cell viability) compared to vehicle group
From the text: (§1) A pNIS-FL2-TurboFP635-pCMV-Rluc recombinant vector expressing reporter genes driven by dual promoters was constructed by Cosmo Genetech, Ltd. (Republic of Korea) using a pNIS-FL2-TurboFP635 vector and a pcDNA3.1/Hygro(+) vector. Specifically, in order to screen a substance that increases the activity of NIS promoter, Firefly-luciferase2(F-luc2) and TurboFP635 were included downstream (clockwise) of the NIS promoter. In order count cells, CMV promoter and Renilla-luciferase (R-luc) were included upstream (counterclockwise) of the NIS promoter. The pNIS-FL2-TurboFP635 vector was provided from Dr. Abhijit De (ACTREC, India), and the pcDNA3.1/Hygro(+) vector was purchased from invitrogen (USA).
(§2) The 8505C cell line was transfected with the pNIS-FL2-TurboFP635-pCMV-Rluc recombinant vector using the Fu-GENE HD solution according to the protocols of the manufacturer (Promega). […]
(§3) To examine transcriptional regulation of the NIS (sodium iodide symporter) promoter, the 8505C-PNIS-PCMV cells were treated with a tyrosine kinase inhibitor (hereinafter referred to as TKI) library for 24 hours. Next, D-luciferin (150 μg/ml) was added to the cells, and the activity of NIS promoter was measured by IVIS Lumina III (Perkin-Elmer, Wellesley, Mass., USA). To normalize the NIS promoter activity to cell number, 10 μg/ml of h-coelenterazine was added to the cells, and the activity of R-luc was measured. […]

8505C-PNIS-PCMV cells = assay: as above; format: cell-based, human; conditions: FIG. 7B
From the text: as §1, §2, §3

[2] = tested on: anaplastic thyroid cancer xenograft (8505C-PNIS-PCMV); assay: Tumor growth inhibition in xenograft mice (tumor size, R-luc BLI); format: in vivo, Balb/c nude mice
Experimental: (§4) Female Balb/c nude mice, 5.5-week old with an average weight of 18.9±0.37 g (mean±standard deviation [SD]), were purchased (Hamamatsu, Shizuoka, Japan). The mice were acclimated under specific pathogen-free conditions for one week before starting the experiment, and were maintained at a temperature of 20 to 25° C. and a relative humidity of 40 to 70%. To establish anaplastic thyroid cancer xenograft mouse models, 8505C-PNIS-PCMV s (5×10^6) were mixed with Matrigel (Corning) at a ratio of 1:1 and injected subcutaneously into the right flank region of each mouse.
In addition, in order to evaluate the effect of TKI-0266 administration on the treatment of thyroid cancer, mice for use in the experiment were divided into four groups (n=5): the vehicle group; the ^131I-administered group (injected intraperitoneally with 1 mCi Na-^131I on day 2 of the experiment; the TKI-0266-administered group (injected intraperitoneally with 50 mg/kg of TKI-0266 for 5 days); and the group co-administered with ^131I and TKI-0266 (injected intraperitoneally with 50 mg/kg of TKI-0266 for 5 days, and injected intravenously with 1 mCi Na-^131I on day 2; n=5). To measure the degree of tumor growth, h-coelenterazine (15 μg/ml) was administered to the mice by intravenous injection, and then the R-luc activity was monitored by BLI every 5 days.

[3] = tested on: anaplastic thyroid cancer xenograft (8505C-PNIS-PCMV); assay: In vivo 99mTc-pertechnetate gamma camera imaging; parameters: species or system Balb/c nude mice; conditions: for 99mTc-pertechnetate uptake (tumor ROI normalized to background), FIG. 16B: 50 mg/kg
Experimental: as §4
When the injected 8505C-PNIS-PCMV cells grew to a size of about 50 mm^3, the mice were divided into two groups (n=5): a vehicle group; and a TKI-0266-administered group (50 mg/kg) injected with TKI-0266 by intraperitoneal injection every day for 5 days. To acquire gamma-camera images, 18.5 to 22.2 MBq ^99mTc-pertechnetate was administered to all the mice by intravenous injection. Whole body pinhole gamma camera imaging using a 2-mm pinhole collimator was acquired by infinia II gamma camera (GE Healthcare, USA). During the experiment, the mice were maintained under anesthesia with isoflurane (Forane, ChoongWae Co., Ltd., Korea). In order to estimate the count value, quantitative analysis was performed by quantifying the regions of interest (hereinafter referred to as ROI) in the mouse tumor region. Finally, in order to confirm the pertechnetate absorbed into the tumor, normalization was performed with a background activity ROI of the same size in the mouse head region.

For `Cc1cc2c(N(C)C3CCCCC3)ncnc2s1` [TKI-0266], the “expression of cleaved caspase-3 indicating cell death (immunohistochemistry)” value (cleaved caspase-3) was “the highest”, the viability at 24 h [1] was about 75% and the “BLI signal activity of R-luc, vehicle group vs treated group” value (8505C-PNIS-PCMV cells) was “did not significantly differ”. The “tumor growth rate compared to vehicle group and 131I alone group” value ([2]; TKI-0266 alone, 50 mg/kg for 5 days) was “slow tumor growth rate”, the “tumor growth inhibitory effect among the four experimental groups” value ([2]; co-administered with 131I and TKI-0266) was “best tumor growth inhibitory effect” and the R-luc signal intensity ([2]; co-administered with 131I and TKI-0266, day 6 after administration) was “decreased”. For the same compound, the R-luc signal intensity ([2]; co-administered with 131I and TKI-0266, day 11 after administration) was “restored”, the “tumor size on days 6 and 11” value ([2]; single agent administration) was “increase” and the “99mTc-pertechnetate accumulation in the cancer cells (radioisotope uptake)” value ([3]; 50 mg/kg every day for 5 days) was “significantly increased; also recorded: the best”. The “99mTc-pertechnetate uptake (tumor ROI normalized to background), FIG. 16B” value ([3]; day 0) was 0.852±0.210 and the “99mTc-pertechnetate uptake (tumor ROI normalized to background), FIG. 16B” value ([3]; day 6) was 1.21±0.24.
